How the values were obtained:
Test in all cases: KinomeScan profiling
Assay type in all cases: binding
[1] = target: T1, PIK3CA(E545K) (Homo sapiens, UniProt P42336, E545K); conditions: read-out: % control
T1 construct: purchased KinomeScan® (panel service)
Outline: (§1)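 The panel spans 468 kinases, and each inventive compound was applied at 1 μM from DMSO. Lower % control means stronger binding; the activity cut-off is set at less than 35%.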

[2] = target: T2, MAP3K3 (Homo sapiens, UniProt Q99759); conditions: MAP3K3, 1 μM; read-out: % control
T2 sequence (Q99759 1-626): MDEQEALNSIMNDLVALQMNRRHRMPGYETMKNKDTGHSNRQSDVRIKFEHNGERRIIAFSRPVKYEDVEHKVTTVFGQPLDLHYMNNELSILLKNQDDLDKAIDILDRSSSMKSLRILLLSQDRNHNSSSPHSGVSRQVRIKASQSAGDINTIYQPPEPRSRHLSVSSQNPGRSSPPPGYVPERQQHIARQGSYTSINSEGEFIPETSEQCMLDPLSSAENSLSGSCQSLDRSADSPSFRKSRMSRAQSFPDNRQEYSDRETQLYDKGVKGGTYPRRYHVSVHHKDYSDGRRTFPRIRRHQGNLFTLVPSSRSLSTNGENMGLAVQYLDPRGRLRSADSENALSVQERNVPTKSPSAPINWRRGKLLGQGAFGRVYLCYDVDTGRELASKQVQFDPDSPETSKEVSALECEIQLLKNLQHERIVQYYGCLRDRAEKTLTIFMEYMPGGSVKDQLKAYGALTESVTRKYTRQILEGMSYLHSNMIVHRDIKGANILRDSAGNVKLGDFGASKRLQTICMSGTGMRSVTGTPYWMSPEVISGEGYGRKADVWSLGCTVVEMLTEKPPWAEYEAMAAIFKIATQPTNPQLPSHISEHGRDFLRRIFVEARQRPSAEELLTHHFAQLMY
Outline: as §1

[3] = target: T3, BIKE (Homo sapiens, UniProt Q9NSY1); conditions: read-out: % control
T3 construct: purchased KinomeScan®
Outline: as §1

[4] = target: T4, HIPK4 (Homo sapiens, UniProt Q8NE63); conditions: HIPK4, 1 μM; read-out: % control
T4 sequence (Q8NE63 1-616): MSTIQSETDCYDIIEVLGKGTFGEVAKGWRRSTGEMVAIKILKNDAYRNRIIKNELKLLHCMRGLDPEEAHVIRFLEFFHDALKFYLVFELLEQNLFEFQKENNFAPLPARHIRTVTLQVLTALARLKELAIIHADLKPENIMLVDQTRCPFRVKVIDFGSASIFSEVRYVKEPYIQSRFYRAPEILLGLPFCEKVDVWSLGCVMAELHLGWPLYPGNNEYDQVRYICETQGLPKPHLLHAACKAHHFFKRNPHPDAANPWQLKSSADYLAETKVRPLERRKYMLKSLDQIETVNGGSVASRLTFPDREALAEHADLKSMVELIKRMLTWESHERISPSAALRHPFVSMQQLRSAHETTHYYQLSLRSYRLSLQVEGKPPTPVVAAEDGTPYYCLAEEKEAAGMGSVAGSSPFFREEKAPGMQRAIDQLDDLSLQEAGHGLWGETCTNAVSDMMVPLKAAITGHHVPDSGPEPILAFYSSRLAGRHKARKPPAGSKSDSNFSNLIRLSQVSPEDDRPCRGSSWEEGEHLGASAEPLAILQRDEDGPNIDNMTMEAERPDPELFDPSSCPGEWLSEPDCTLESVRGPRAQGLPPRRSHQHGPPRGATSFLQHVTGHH
Outline: as §1

[5] = target: T5, MAP3K2 (Homo sapiens, UniProt Q9Y2U5); conditions: MAP3K2, 1 μM; read-out: % control
T5 sequence (Q9Y2U5 1-619): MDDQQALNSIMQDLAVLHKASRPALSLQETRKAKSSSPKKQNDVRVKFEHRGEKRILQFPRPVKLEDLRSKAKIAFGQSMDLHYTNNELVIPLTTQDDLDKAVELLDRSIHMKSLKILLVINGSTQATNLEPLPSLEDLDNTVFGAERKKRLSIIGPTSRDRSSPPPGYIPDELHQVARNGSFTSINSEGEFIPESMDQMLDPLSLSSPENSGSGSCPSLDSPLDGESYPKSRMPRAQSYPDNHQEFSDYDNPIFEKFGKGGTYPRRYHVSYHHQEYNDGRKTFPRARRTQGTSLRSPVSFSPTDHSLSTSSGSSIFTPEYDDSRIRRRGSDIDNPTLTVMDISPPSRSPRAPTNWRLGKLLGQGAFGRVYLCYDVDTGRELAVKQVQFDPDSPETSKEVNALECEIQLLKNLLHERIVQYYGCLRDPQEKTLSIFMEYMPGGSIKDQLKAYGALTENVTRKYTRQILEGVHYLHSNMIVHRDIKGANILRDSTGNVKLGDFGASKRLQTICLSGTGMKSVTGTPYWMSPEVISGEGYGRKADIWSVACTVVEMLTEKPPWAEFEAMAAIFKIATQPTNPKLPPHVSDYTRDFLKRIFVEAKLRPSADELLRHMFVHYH
Outline: as §1

T3 sequence (Q9NSY1 whole entry): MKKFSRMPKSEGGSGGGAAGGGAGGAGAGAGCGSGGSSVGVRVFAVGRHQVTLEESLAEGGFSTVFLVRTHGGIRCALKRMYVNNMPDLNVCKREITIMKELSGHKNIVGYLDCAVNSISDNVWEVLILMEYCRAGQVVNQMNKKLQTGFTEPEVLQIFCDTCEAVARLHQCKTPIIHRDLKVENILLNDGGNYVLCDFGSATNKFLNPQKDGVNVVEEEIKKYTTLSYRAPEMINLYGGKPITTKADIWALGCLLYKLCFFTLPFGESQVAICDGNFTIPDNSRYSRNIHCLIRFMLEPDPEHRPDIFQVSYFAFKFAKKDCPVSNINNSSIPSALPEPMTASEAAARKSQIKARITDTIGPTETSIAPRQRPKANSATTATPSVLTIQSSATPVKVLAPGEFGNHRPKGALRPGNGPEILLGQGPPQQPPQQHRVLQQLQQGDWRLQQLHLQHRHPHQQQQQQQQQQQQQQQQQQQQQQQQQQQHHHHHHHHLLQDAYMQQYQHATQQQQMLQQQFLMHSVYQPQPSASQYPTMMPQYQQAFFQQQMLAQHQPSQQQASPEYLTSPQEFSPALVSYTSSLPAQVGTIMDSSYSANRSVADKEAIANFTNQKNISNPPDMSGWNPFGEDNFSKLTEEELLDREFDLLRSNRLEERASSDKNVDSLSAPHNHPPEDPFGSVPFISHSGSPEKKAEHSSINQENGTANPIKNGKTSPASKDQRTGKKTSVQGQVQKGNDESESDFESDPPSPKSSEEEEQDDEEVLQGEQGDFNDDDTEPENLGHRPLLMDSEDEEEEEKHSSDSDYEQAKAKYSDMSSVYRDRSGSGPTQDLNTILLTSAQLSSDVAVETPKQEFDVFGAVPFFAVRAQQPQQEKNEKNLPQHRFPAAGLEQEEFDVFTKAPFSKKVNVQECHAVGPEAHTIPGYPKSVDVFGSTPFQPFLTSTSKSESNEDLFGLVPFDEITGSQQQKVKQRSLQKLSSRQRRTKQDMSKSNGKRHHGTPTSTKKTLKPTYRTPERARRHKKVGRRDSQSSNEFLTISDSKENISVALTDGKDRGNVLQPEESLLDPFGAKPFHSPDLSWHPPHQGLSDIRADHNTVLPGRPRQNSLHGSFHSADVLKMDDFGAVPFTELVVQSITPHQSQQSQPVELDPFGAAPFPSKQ
T1 sequence (P42336 whole entry E545K): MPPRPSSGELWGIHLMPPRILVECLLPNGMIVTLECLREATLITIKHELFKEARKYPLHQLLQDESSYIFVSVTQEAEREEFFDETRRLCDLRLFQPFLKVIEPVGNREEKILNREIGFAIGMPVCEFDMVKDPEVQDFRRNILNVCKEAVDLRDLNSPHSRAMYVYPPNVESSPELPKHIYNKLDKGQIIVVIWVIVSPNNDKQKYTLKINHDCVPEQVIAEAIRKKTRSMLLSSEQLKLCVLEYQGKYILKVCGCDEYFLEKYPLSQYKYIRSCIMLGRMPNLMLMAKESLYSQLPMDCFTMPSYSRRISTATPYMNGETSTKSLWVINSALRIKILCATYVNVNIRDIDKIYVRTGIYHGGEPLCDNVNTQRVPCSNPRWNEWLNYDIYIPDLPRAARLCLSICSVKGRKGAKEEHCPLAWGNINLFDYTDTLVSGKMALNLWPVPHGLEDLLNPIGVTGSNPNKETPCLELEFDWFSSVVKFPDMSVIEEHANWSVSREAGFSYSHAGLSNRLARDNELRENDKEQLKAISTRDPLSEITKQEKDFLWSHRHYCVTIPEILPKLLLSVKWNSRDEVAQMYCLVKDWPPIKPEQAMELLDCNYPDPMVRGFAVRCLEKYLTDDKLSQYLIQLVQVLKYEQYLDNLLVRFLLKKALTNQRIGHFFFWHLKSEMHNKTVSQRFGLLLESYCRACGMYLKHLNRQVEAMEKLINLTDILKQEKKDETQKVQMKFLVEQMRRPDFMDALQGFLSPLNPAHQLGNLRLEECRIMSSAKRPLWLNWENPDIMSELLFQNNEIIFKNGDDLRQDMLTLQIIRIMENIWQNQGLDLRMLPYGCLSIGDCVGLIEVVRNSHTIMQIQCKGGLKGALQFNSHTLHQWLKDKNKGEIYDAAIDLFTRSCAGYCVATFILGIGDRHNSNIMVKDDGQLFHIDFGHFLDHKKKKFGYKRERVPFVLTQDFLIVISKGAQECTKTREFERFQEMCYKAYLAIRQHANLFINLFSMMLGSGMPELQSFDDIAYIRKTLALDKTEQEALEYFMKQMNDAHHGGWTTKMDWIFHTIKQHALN

With `CNc1c(-c2cnn([C@H]3CCN(C(C)=O)C[C@@H]3F)c2)cnc2[nH]cc(Cl)c12` [Compound 77, 1-((3S,4S)-4-(4-(3-chloro-4-(methylamino)-1H-pyrrolo[2,3-b]pyridin-5-yl)-1H-pyrazol-1-yl)-3-fluoropiperidin-1-yl)ethan-1-one] the remaining binding at 1 µM [1] was 18%, the remaining binding at 1 µM [2] was 44% and the remaining binding at 1 µM [3] was 0.4%. It also gave a remaining binding at 1 µM [4] of 84% and a remaining binding at 1 µM [5] of 25%.
`O=C(c1ccc(-c2cnc3[nH]cc(Cl)c3c2NC2CCCC2)cc1)N1CCC(N2CCOCC2)CC1` [Compound 101, (4-(3-chloro-4-(cyclopentylamino)-1H-pyrrolo[2,3-b]pyridin-5-yl)phenyl)(4-morpholinopiperidin-1-yl)methanone] was tested, and the remaining binding at 1 µM [1] was 79%, the remaining binding at 1 µM [2] was 47% and the remaining binding at 1 µM [3] was 6.8%. The remaining binding at 1 µM [4] was 79% and the remaining binding at 1 µM [5] was 35%.
With `CNc1c(-c2ccc(C(=O)N3CCC(N4CCOCC4)CC3)cc2)cnc2[nH]cc(Cl)c12` [Compound 96, (4-(3-chloro-4-(methylamino)-1H-pyrrolo[2,3-b]pyridin-5-yl)phenyl)(4-morpholinopiperidin-1-yl)methanone] the remaining binding at 1 µM [1] was 31%, the remaining binding at 1 µM [2] was 51% and the remaining binding at 1 µM [3] was 0.85%. The remaining binding at 1 µM [4] was 64% and the remaining binding at 1 µM [5] was 29%.

Reference: patent US12275731B2, “Azaindole inhibitors of wild-type and mutant forms of LRRK2” (DANA-FARBER CANCER INSTITUTE, INC., priority 2018, dated 2025)
